Test results published in US12109246B2, “Composition for the treatment and/or prevention of lower urinary tract symptoms” (SERELYS PHARMA S.A.M., priority 2019, dated 2024).

Target: T1, muscarinic M3 receptor (Homo sapiens, UniProt P20309)
T1 construct: using HEK293 cells which express the receptor endogenously; endogenous in cells; host or cells: HEK293
Experiment: Antagonist activity on muscarinic M3 receptor, FLIPR Tetra calcium assay in HEK293 cells
Format: cell-based
Conditions: antagonist mode versus carbachol at its EC50, HEK293 cells, calcium fluorescence

T1 sequence (P20309 whole entry): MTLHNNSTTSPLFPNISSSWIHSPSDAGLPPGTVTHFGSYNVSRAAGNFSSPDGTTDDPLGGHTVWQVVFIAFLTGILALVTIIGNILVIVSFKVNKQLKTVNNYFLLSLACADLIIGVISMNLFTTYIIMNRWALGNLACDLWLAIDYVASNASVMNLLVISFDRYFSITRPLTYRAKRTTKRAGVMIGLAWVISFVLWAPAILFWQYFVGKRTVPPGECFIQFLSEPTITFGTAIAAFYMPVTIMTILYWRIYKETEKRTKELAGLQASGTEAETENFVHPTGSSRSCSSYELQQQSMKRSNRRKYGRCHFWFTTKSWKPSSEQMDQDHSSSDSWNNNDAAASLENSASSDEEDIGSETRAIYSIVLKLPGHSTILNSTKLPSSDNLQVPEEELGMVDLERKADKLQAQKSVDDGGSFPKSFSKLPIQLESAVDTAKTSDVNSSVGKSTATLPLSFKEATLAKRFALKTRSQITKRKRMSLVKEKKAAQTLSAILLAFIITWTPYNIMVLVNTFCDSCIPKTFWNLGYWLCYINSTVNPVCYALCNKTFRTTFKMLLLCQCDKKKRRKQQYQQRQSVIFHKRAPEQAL

Vitamin E [Vitamin E (as in Example 1)]
IC50: >1 µg/mL
